The first experiment deals with T1, C5a anaphylatoxin chemotactic receptor 1 (Homo sapiens, UniProt P21730).
T1 sequence (P21730 whole entry): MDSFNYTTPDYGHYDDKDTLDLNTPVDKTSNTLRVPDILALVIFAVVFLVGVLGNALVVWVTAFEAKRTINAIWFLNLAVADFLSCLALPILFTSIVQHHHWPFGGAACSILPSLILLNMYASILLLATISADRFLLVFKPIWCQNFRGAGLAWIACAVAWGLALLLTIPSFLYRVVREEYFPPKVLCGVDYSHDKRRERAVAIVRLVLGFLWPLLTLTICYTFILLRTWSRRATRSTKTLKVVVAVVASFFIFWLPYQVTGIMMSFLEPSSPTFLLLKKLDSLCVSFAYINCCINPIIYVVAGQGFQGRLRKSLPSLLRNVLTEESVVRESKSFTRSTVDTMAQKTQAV
In words: Compound was evaluated for the antagonistic activity against C5a anaphylatoxin chemotactic receptor in human neutrophil C5a stimulated respiratory burst assay.
Conditions: not given
In kind it is functional.
The IC50 is the concentration that gives 50% inhibition. Low readings indicate greater potency in that assay, high ones weaker potency in that assay. Take `CNC(N)=Nc1ccc(OCCc2ccccc2)c(-c2ccccc2)c1`: inhibition was half-maximal at 0.8 µM (IC50).

The target in a further experiment is T1, C5a anaphylatoxin chemotactic receptor 1. In words: Binding affinity against C5a anaphylatoxin chemotactic receptor assayed on human monocyte cell line U937. The class given is cell-based, U-937.
Conditions: not given
Compound `CNC(N)=Nc1ccc(OCCc2ccccc2)c(OCc2ccccc2)c1` showed an IC50 of 7.5 µM.
In the case of `CNC(N)=Nc1ccc(OCCCc2ccccc2)c(OCc2ccccc2)c1`, the IC50 was determined as 6 µM.
Same read-out and setting: the figure for `CNC(N)=Nc1ccc(OCc2ccccc2)c(OC2CCCC2)c1` is 25 µM; for `N=C(N)Nc1ccc(OCc2ccccc2)c(OCc2ccccc2)c1` it is more than 100 µM.
Still for that read-out and setting: the result for `CNC(N)=Nc1ccc(OCc2ccccc2)c(-c2ccccc2)c1` reads 2 µM; that for `C/N=C(/N)Nc1ccc(OCc2ccccc2)c(-c2cccc(F)c2)c1`, 8 µM; that for `CNC(N)=Nc1ccc(OCc2ccccc2)c(-c2ccc(Cl)cc2)c1`, 50 µM.
On the same count and under the same terms, the result for `CNC(N)=Nc1ccc(OCC2CCCCC2)c(-c2ccccc2)c1` reads 3 µM; that for `CNC(N)=Nc1ccc(OCCCc2ccccc2)c(-c2ccccc2)c1`, 1 µM.
Consider `C/N=C(/N)Nc1ccc(OCc2ccccc2)c(-c2cccc3ccccc23)c1`, for which the IC50 is 4.5 µM.
The same measure, in the same setting: the figure for `C/N=C(/N)Nc1ccc(OCCC2CCCCC2)c(-c2ccccc2)c1` is 1 µM.
Still for that read-out and setting: the figure for `CNC(N)=Nc1ccc(OCCCCc2ccccc2)c(OCc2ccccc2)c1` is 4 µM; for `CNC(=N)Nc1ccc(OCc2ccccc2)c(-c2cccc(OC)c2)c1` it is 9 µM.
Compound `CCCCOc1ccc(NC(=N)NC)cc1OCc1ccccc1` yielded an IC50 of 30 µM.
The same measure, in the same setting: the figure for `C/N=C(/N)Nc1ccc(OCC2CCCCC2)c(OCc2ccccc2)c1` is 8 µM; for `CNC(N)=Nc1ccc(OCc2ccccc2)c(-c2ccc(OC)cc2)c1` it is 54 µM.
On to `CNC(N)=Nc1ccc(OCCC2CCCCC2)c(OCc2ccccc2)c1`, for which the IC50 stood at 9 µM. This IC50 lies about 6-fold lower than the previous one.
On to `C/N=C(/N)Nc1ccc(OCc2ccccc2)c(-c2cccs2)c1`, for which the IC50 was 9 µM.
The same measure, in the same setting: the figure for `C/N=C(\N)Nc1ccc(OCc2ccccc2)c(OCc2ccccc2)c1` is 30 µM.
On the same count and under the same terms, the result for `C/N=C(/N)Nc1ccc(OCc2ccccc2)c(Oc2ccccc2)c1` reads 4 µM.

A further experiment addresses T2, C5a anaphylatoxin chemotactic receptor 1 (Homo sapiens) (UniProt P21730).
T2 sequence (whole entry): T1 sequence (P21730 whole entry)
In words: Tested in vitro for the inhibition against C5a anaphylatoxin chemotactic receptor assayed on human monocyte cell line U937 at 30 uM. The following applies: U-937. The class given is cell-based.
The inhibition is the share of the control response that was lost under treatment. Lower therefore signals little suppression. For the compound `C/N=C(/N)Nc1ccc(OCc2ccccc2)c(-c2ccc(F)cc2)c1`, the inhibition came to 20%.
On the same count and under the same terms, the result for `C/N=C(/N)Nc1ccc(Oc2ccccc2)c(OCc2ccccc2)c1` reads 32%.
Same read-out and setting: the result for `CC/N=C(\N)Nc1ccc(OCc2ccccc2)c(OCc2ccccc2)c1` reads 40%.
Still for that read-out and setting: the figure for `CNC(=N)Nc1ccc(OC)c(OCc2ccccc2)c1` is 20%.

The next experiment deals with T2, C5a anaphylatoxin chemotactic receptor 1 (Homo sapiens). In words: Tested in vitro for the inhibition against C5a anaphylatoxin chemotactic receptor assayed on human monocyte cell line U937; Inactive at 30 uM. In kind it is cell-based. To be noted: U-937.
The compound `CNC(=N)Cc1ccc(OCc2ccccc2)c(OCc2ccccc2)c1` returned an inhibition of less than 20%.
On the same count and under the same terms, the figure for `NCc1ccc(OCc2ccccc2)c(OCc2ccccc2)c1` is less than 20%; for `C/N=C(/N)c1ccc(OCc2ccccc2)c(OCc2ccccc2)c1` it is less than 20%.
The same measure, in the same setting: the result for `Nc1ccc(OCc2ccccc2)c(OCc2ccccc2)c1` reads less than 20%.
Still for that read-out and setting: the result for `CNC(=N)Nc1ccc(OCc2ccccc2)c(-c2ccccc2OC)c1` reads less than 20%; that for `N=C(N)NCc1ccc(OCc2ccccc2)c(OCc2ccccc2)c1`, less than 20%.
Consider `C/N=C(/N)Nc1ccc(OCc2ccccc2)c(OCCc2ccccc2)c1`, for which the inhibition was less than 20%.
On the same count and under the same terms, the result for `CC(=N)Nc1ccc(OCc2ccccc2)c(OCc2ccccc2)c1` reads less than 20%.

(Values after ChEMBL document CHEMBL1129896, “New non peptidic C5a receptor antagonists” (Bioorg Med Chem Lett, 1997).)
